Reference: patent US20250312323A1 (Cavion, Inc., priority 2018, published 2025)

Test system: patients with essential tremor
Assay: T-CALM: TETRAS performance subscale, investigator rated
[1] = Day 15, change from baseline, N = 39
[2] = Day 28, change from baseline, N = 37

Q: Which results are given for `CC(C)c1ccc(CC(=O)N[C@H](C)c2ccc(OCC(F)(F)F)cn2)cc1` [CX-8998]?
A: TETRAS-PS Score, subjects with 0 change, n (%) [1]: 2 (5.1%); TETRAS-PS Score, subjects with >0 to 1 point improvement, n (%) [1]: 3 (7.7%); TETRAS-PS Score, subjects with >0 to 1 point worsening, n (%) [1]: 2 (5.1%); TETRAS-PS Score, subjects with >1 to 2.5 point improvement, n (%) [1]: 4 (10.3%); TETRAS-PS Score, subjects with >1 to 2.5 point worsening, n (%) [1]: 5 (12.8%); TETRAS-PS Score, subjects with >2.5 to 5 point improvement, n (%) [1]: 10 (25.6%); TETRAS-PS Score, subjects with >2.5 to 5 point worsening, n (%) [1]: 2 (5.1%); TETRAS-PS Score, subjects with >5 to 10 point improvement, n (%) [1]: 8 (20.5%); TETRAS-PS Score, subjects with >5 to 10 point worsening, n (%) [1]: 0; TETRAS-PS Score, subjects with >10 point improvement, n (%) [1]: 3 (7.7%); TETRAS-PS Score, subjects with >10 point worsening, n (%) [1]: 0; LS mean (±SE) change from baseline in TETRAS-PS scored by investigators (in person), primary endpoint analysis (Day 28): −4.8±0.80; Subjects with improvement of at least 5 points by TETRAS-PS score, number (Day 28, N 37): 16; Subjects with improvement of at least 5 points by TETRAS-PS score, percent (Day 28, N 37): (43.2%); TETRAS-PS Score, subjects with 0 change, n (%) [2]: 1 (2.6%); TETRAS-PS Score, subjects with >0 to 1 point improvement, n (%) [2]: 6 (15.4%); TETRAS-PS Score, subjects with >0 to 1 point worsening, n (%) [2]: 2 (5.1%); TETRAS-PS Score, subjects with >1 to 2.5 point improvement, n (%) [2]: 5 (12.8%); TETRAS-PS Score, subjects with >1 to 2.5 point worsening, n (%) [2]: 1 (2.6%); TETRAS-PS Score, subjects with >2.5 to 5 point improvement, n (%) [2]: 11 (28.2%); TETRAS-PS Score, subjects with >2.5 to 5 point worsening, n (%) [2]: 1 (2.6%); TETRAS-PS Score, subjects with >5 to 10 point improvement, n (%) [2]: 8 (20.5%); TETRAS-PS Score, subjects with >5 to 10 point worsening, n (%) [2]: 0; TETRAS-PS Score, subjects with >10 point improvement, n (%) [2]: 4 (10.3%); TETRAS-PS Score, subjects with >10 point worsening, n (%) [2]: 0
